Publication PMC4939875 (Nature, 2016)

Assays:
TONSL ARD = assay: GST-histone tail pull-down with recombinant TONSL ARD; type: binding, human; conditions: GST-H3 tail (1–59), GST-H4 tail (1–31); 20 mM Tris pH 7.5, 0.5 M NaCl; SDS-PAGE
[1] = system: TONSL acidic stretch and ARD (a.a. 450-692); assay: ITC of TONSL acidic stretch and ARD; type: binding, human; conditions: TONSL a.a. 450-692, H3K9me1 (a.a. 1-21), 20 mM Tris pH 7.5, 0.5 M NaCl

| Substance | binding of TONSL ARD to GST-histone tail (TONSL ARD) | interaction between TONSL ARD with acidic stretch and H3K9me1 peptide [1] |
| --- | --- | --- |
| GST-H4 tail: GST-tagged human histone H4 fragment 1–31 | binds |  |
| H3K9me1: peptide of H3(1-21)K9me1 (mono-methylation on Lys9) |  | unable to detect an interaction |
